According to patent publication US20250042937A1, “RAPID, GREEN, DISULFIDE BOND FORMATION IN WATER USING DICYANOCOBINAMIDE” (Syracuse University, priority 2023, published 2025):

How the values were obtained:
[1] = system: rat retinas; conditions: low doses (2-5%); cited from earlier work
[2] = target: T1, oxytocin receptor (Homo sapiens, UniProt P30559); experiment: screening at the oxytocin receptor (agonism) after Cbi oxidation; format: cell-based; conditions: peptide oxidized with Cbi; free or conjugated to B12
T1 sequence (P30559 1-389): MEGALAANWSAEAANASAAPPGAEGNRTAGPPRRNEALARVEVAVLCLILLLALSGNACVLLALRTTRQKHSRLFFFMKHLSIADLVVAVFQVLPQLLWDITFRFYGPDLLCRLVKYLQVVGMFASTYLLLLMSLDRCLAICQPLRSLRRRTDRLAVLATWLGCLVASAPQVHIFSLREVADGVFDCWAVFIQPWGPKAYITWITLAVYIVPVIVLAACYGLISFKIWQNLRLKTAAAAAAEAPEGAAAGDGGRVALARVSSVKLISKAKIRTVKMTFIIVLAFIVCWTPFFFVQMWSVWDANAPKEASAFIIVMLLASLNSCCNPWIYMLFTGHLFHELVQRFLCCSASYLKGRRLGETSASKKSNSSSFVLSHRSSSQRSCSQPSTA

Compound: C[S+](C)[O-] [DMSO, dimethyl sulfoxide]
- cytotoxicity [1]: cytotoxic

Compound: CC[C@H](C)[C@@H]1NC(=O)[C@H](Cc2ccc(O)cc2)NC(=O)[C@@H](N)CSSC[C@@H](C(=O)N2CCC[C@H]2C(=O)N[C@@H](CCCCN=[N+]=[N-])C(=O)NCC(N)=O)NC(=O)[C@H](CC(N)=O)NC(=O)[C@H](CCC(N)=O)NC1=O [OT]
- Kd [2]: 4.39 nM

Compound: OT after conjugation to B12: OT peptide conjugated to vitamin B12
- Kd [2]: 4.63 nM
